Test results reported in patent US20120108557A1, “FLUOROQUINOLONE DERIVATIVES FOR OPHTHALMIC APPLICATIONS” (ALCON RESEARCH, LTD., priority 2008, published 2012).

Columns and labels:
in vitro = conditions: female, New Zealand Albino, rabbit
Method: The procedure used is summarized below.
Female New Zealand Albino rabbits were sacrificed by first anaesthetizing with ketamine (30 mg/Kg) and xylazine (6 mg/Kg) followed by an injection of an overdose of […]* (sodium pentobarbital, 1 ml of a 26% solution) into the marginal ear vein. The intact eyes, along with the lids and conjunctival sacs were then enucleated and immediately stored in about 70 ml of fresh BSS PLUS® irrigation solution saturated with O2/CO2 (95:5).
To accomplish this, the exposed cornea of the enucleated eye was carefully placed on a corneal holder, which maintained the cornea curvature and held the eye in place. Various tissues of the eye were dissected leaving the cornea, a small ring of scleral tissue, and the palpebral conjunctiva. The conjunctival and scleral tissue served as a gasket and permitted the cornea to be suspended within the corneal ring in the center of the perfusion chamber. The chamber was jacketed to maintain the cornea and the perfusion solution at 35° C. The corneal holder and chamber were made from acrylic plastic at the University of Iowa, Iowa City, Iowa.
The mounted cornea was clamped between the two cylindrical compartments of the perfusion chamber and 7.5 mls of BSS PLUS® irrigating solution was placed in the receiving (endothelial) side of the chamber with stirring and bubbling of the O2/CO2 (95:5) mixture. Then, 7 mls of the fluoroquinolone dissolved in BSS PLUS® irrigating solution at a concentration of 100 μMole (this is approximately 4 mg/100 mL) was added to the donor (epithelial) side of the chamber also with stirring and bubbling of the O2/CO2 (95:5) mixture. The difference in volume ensured that the cornea would not buckle during the course of the experiment.
Samples (150 μL) were withdrawn from the receiving chamber every 30 minutes over a five hour period, and an equal volume of irrigating solution was immediately added to the receiving chamber to maintain a constant volume. The concentration of fluoroquinolones in the samples was determined using reverse-phase HPLC. […] Mixtures of acetonitrile and 31 mM phosphoric acid/sodium phosphate buffer at pH=3 were the mobile phase. The mobile phase (acetonitrile:phosphate buffer v/v) and UV detection wavelengths for each of the fluoroquinolones was determined beforehand. […] After each permeability experiment, the cornea was trimmed of excess scleral tissue and conjunctiva, weighed and dried overnight over phosphorus pentoxide in a vacuum desiccator. It was then reweighed in order to determine the hydration level. […] If the cornea is damaged in any way the hydration level rises. Data from corneas with hydration levels over 83% are discarded.
The rate of drug accumulation in the receiving (endothelial) chamber, and the apparent Permeability Coefficients (Papp) of the fluoroquinolones were then calculated as follows: […]

Acinetobacter junii = assay: In vitro antimicrobial activity, agar dilution MIC; assay type: cell-based
Method: (§1) The activity of the compounds of the present invention was evaluated using an in vitro assay. Microorganisms were prepared from growth on agar media, in broth culture, or from thawed cryopreserved cultures. Fungal cultures were filtered to remove mycelial elements.
(§2) Using Mueller Hinton II Broth, 0.9% saline or other appropriate media, a suspension of each culture was prepared and adjusted to a turbidity equivalent to that of a 0.5 McFarland Standard. (Cultures adjusted to the 0.5 McFarland Standard generally contain approximately 1.0×10^8 CFU/mL). The adjusted suspension for each culture was diluted 1:10 in the appropriate media so that the inoculum concentration approximates 1.0×10^7 CFU/mL.
(§3) The antimicrobial agent to be tested was weighed and diluted with a volume of sterile distilled water calculated to yield the necessary starting concentration. Serial 1:2 dilutions of the antimicrobial agent in sterile distilled water were prepared (approximately 10-12 test concentrations comprise a reasonable experimental range). A known amount of each antimicrobial dilution was combined with an aliquot of agar medium calculated to yield the desired final antimicrobial test concentration and dispensed onto plates.
(§4) The amount of antimicrobial agent to be weighed was determined using the following equation: […]
(§5) Antimicrobial stock solutions were prepared at concentrations 5-10 times the highest concentration to be tested (routinely 1024 μg/mL). […] The stock solution was diluted to appropriate concentration using sterile water to form a working solution. The working solution was diluted two-fold, in sterile water, until the desired concentration is obtained.
(§6) Mueller Hinton II agar was prepared as described by the manufacturer. Mueller Hinton II agar may be supplemented with 5% defibrinated sheep blood for testing streptococci. Agar was added to the serially diluted antimicrobial solution in each container. The solutions were mixed thoroughly and poured into petri dishes (about 25 mL/plate). The pH of the agar at 25° C. should be between 7.2 and 7.4.
(§7) At least one inocula control plate was inoculated (agar medium without antimicrobial agent) from each seed plate before inoculating test plates. Test plates were inoculated starting at the lowest concentration and proceeding to the highest concentration. After all test plates were inoculated, an additional control plate (agar medium without antimicrobial agent) was inoculated. The plates were incubated in a non-CO2 incubator (or CO2 incubator depending on growth requirements); 18-24 hours at 32-35° C. was sufficient for most organisms.
(§8) All inoculation points on the agar surface were examined for the presence of growth as compared to the inoculum control plates. The results were summarized and use to determine Minimal Inhibitory Concentrations (MICs): The MIC is the lowest concentration of the antimicrobial agent which prevents visible growth of the organism (negative score).

[1] = test system: Corynebacterium amycolatum; assay: In vitro antimicrobial activity, agar dilution MIC; assay type: cell-based
Method: as §1, §2, §3, §4, §5, §6, §7, §8

Enterobacter hormaechei = assay: In vitro antimicrobial activity, agar dilution MIC; assay type: cell-based; conditions: test organism 31, Enterobacter hormaechei
Method: as §1, §2, §3, §4, §5, §6, §7, §8

Escherichia coli = assay: In vitro antimicrobial activity, agar dilution MIC; assay type: cell-based
Method: as §1, §2, §3, §4, §5, §6, §7, §8

MRSE = assay: In vitro antimicrobial activity, agar dilution MIC; assay type: cell-based
Method: as §1, §2, §3, §4, §5, §6, §7, §8

Pseudomonas aeruginosa = assay: In vitro antimicrobial activity, agar dilution MIC; assay type: cell-based
Method: as §1, §2, §3, §4, §5, §6, §7, §8

Staphylococcus aureus = assay: In vitro antimicrobial activity, agar dilution MIC; assay type: cell-based
Method: as §1, §2, §3, §4, §5, §6, §7, §8

[2] = test system: Staphylococcus haemolyticus; assay: In vitro antimicrobial activity, agar dilution MIC; assay type: cell-based
Method: as §1, §2, §3, §4, §5, §6, §7, §8

[3] = test system: Stenotrophomonas maltophilia; assay: In vitro antimicrobial activity, agar dilution MIC; assay type: cell-based
Method: as §1, §2, §3, §4, §5, §6, §7, §8

Streptococcus mitis = assay: In vitro antimicrobial activity, agar dilution MIC; assay type: cell-based
Method: as §1, §2, §3, §4, §5, §6, §7, §8

Streptococcus pneumoniae = assay: In vitro antimicrobial activity, agar dilution MIC; assay type: cell-based
Method: as §1, §2, §3, §4, §5, §6, §7, §8

Nc1c(F)c(N2CC3CCCNC3C2)c(F)c2c1c(=O)c(C(=O)O)cn2C1CC1 [Compound 3 (S,S)]
Papp at 5 h, 100 μMole (in vitro): 13.6 ×10⁻⁶ cm/s | MEAN LAG TIME (in vitro; 100 μMole): 45 min | Minimal Inhibitory Concentration (MIC) (Acinetobacter junii; test organism 27, Acinetobacter junii): ≦0.25 | Minimal Inhibitory Concentration (MIC) (Acinetobacter junii; test organism 28, Acinetobacter junii): 0.06 | Minimal Inhibitory Concentration (MIC) (Acinetobacter junii; test organism 29, Acinetobacter junii): >4 | Minimal Inhibitory Concentration (MIC) ([1]; test organism 24, Corynebacterium amycolatum): 0.5 | Minimal Inhibitory Concentration (MIC) ([1]; test organism 25, Corynebacterium amycolatum): >4 | Minimal Inhibitory Concentration (MIC) (Enterobacter hormaechei): 4 | Minimal Inhibitory Concentration (MIC) (Escherichia coli; test organism 32, Escherichia coli): 0.06 | Minimal Inhibitory Concentration (MIC) (Escherichia coli; test organism 33, Escherichia coli): ≦0.25 | Minimal Inhibitory Concentration (MIC) (Escherichia coli; test organism 34, Escherichia coli): >4 | Minimal Inhibitory Concentration (MIC) (MRSE; test organism 9, MRSE): >2 | Minimal Inhibitory Concentration (MIC) (MRSE; test organism 10, MRSE): >2 | Minimal Inhibitory Concentration (MIC) (MRSE; test organism 11, MRSE): >4 | Minimal Inhibitory Concentration (MIC) (Pseudomonas aeruginosa; test organism 37, Pseudomonas aeruginosa): >4 | Minimal Inhibitory Concentration (MIC) (Pseudomonas aeruginosa; test organism 38, Pseudomonas aeruginosa): 0.5 | Minimal Inhibitory Concentration (MIC) (Staphylococcus aureus; test organism 1, Staphylococcus aureus): ≦0.03 | Minimal Inhibitory Concentration (MIC) (Staphylococcus aureus; test organism 2, Staphylococcus aureus): ≦0.25 | Minimal Inhibitory Concentration (MIC) ([2]; test organism 12, Staphylococcus haemolyticus): 0.125 | Minimal Inhibitory Concentration (MIC) ([2]; test organism 13, Staphylococcus haemolyticus): 1 | Minimal Inhibitory Concentration (MIC) ([2]; test organism 14, Staphylococcus haemolyticus): >4 | Minimal Inhibitory Concentration (MIC) ([3]; test organism 41, Stenotrophomonas maltophilia): 2 | Minimal Inhibitory Concentration (MIC) ([3]; test organism 42, Stenotrophomonas maltophilia): 0.125 | Minimal Inhibitory Concentration (MIC) (Streptococcus mitis; test organism 21, Streptococcus mitis): ≦0.25 | Minimal Inhibitory Concentration (MIC) (Streptococcus mitis; test organism 22, Streptococcus mitis): 0.125 | Minimal Inhibitory Concentration (MIC) (Streptococcus mitis; test organism 23, Streptococcus mitis): 1 | Minimal Inhibitory Concentration (MIC) (Streptococcus pneumoniae; test organism 19, Streptococcus pneumoniae): 0.125 | Minimal Inhibitory Concentration (MIC) (Streptococcus pneumoniae; test organism 20, Streptococcus pneumoniae): ≦0.25
